Patent US9663473B2 (Actelion Pharmaceuticals Ltd, priority 2013, dated 2017)

Each molecule was assayed against T1, recombinant human ALX receptor (Homo sapiens, UniProt P25090) (assay: Intracellular calcium measurements (FLIPR), ALX receptor agonistic activity). Conditions: HEK293-hALXR-Gα16 cells, Fluo-4 calcium signal, normalized to WKYMVm 10 nM.
T1 construct: expressed in transfected cells; host or cells: HEK293 (HEK293-hALXR-Gα16)
T1 sequence (P25090 1-351): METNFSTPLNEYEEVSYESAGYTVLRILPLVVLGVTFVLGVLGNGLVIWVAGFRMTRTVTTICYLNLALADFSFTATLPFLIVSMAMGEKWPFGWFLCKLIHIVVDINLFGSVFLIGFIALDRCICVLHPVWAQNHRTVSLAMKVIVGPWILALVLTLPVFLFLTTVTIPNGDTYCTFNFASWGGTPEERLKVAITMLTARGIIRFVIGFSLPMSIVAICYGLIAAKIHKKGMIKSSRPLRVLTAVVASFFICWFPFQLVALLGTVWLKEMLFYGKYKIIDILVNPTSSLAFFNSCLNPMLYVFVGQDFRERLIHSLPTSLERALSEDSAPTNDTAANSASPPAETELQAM
Type: cell-based
Description: The ALX receptor agonistic activity of the compounds of formula (I) is determined in accordance with the following experimental method.
Intracellular Calcium Measurements:
Cells expressing recombinant human ALX receptor and the G-protein Gα16 (HEK293-hALXR-Gα16) were grown to 80% confluency in Growing Medium (GM). Cells were detached from culture dishes with a cell dissociation buffer (Invitrogen, 13151-014), and collected by centrifugation at 1′000 rpm at rt for 5 min in Assay Buffer (AB) (equal parts of Hank's BSS (Gibco, 14065-049) and DMEM without Phenol Red (Gibco, 11880-028)). After 60 min incubation at 37° C. under 5% CO2 in AB supplemented with 1 μM Fluo-4 (AM) (Invitrogen, F14202) and 20 mM HEPES (Gibco, 15630-056), the cells were washed and resuspended in AB. They were then seeded onto 384-well FLIPR assay plates (Greiner, 781091) at 50′000 cells in 70 μl per well and sedimented by centrifugation at 1′000 rpm for 1 min. Stock solutions of test compounds were made up at a concentration of 10 mM in DMSO, and serially diluted in AB to concentrations required for activation dose response curves. WKYMVm (Phoenix Peptides) was used as a reference agonist. A FLIPR Tetra instrument (Molecular Devices) was operated according to the manufacturer's standard instructions, adding 4 μl of test compound dissolved at 10 mM in DMSO and diluted prior to the experiment in assay buffer to obtain the desired final concentration. Changes in fluorescence were monitored before and after the addition of test compounds at lex=488 nm and lem=540 nm. Emission peak values above base level after compounds addition were exported after base line subtraction. Values were normalized to high-level control (WKYMVm compound, 10 nM final concentration) after subtraction of the base line value (AB addition).

| Compound | EC50 |
| --- | --- |
| CC(C)(C)c1ccc(CC(NC(=O)N[C@H]2CC[C@H](O)CC2)c2nc3ccccc3[nH]2)cc1 (relative stereo) [Example 79, 1-(1-(1H-Benzo[d]imidazol-2-yl)-2-(4-(tert-butyl)phenyl)ethyl)-3-(trans-4-hydroxycyclohexyl)urea] | 707 nM |
| COc1ccc(CC(NC(=O)N[C@H]2CC[C@H](OC)CC2)c2nc3ccccc3[nH]2)cc1 (relative stereo) [Example 80, 1-(1-(1H-Benzo[d]imidazol-2-yl)-2-(4-methoxyphenyl)ethyl)-3-(trans-4-methoxycyclohexyl)urea] | 172 nM |
| O=C(NC(Cc1ccc(Br)cc1)c1nc2cc(Cl)ccc2[nH]1)N[C@H]1CC[C@H](O)CC1 (relative stereo) [Example 81, 1-(2-(4-Bromophenyl)-1-(5-chloro-1H-benzo[d]imidazol-2-yl)ethyl)-3-(trans-4-hydroxycyclohexyl)urea] | 1.4 nM |
| COc1ccc(CC(NC(=O)N[C@H]2CC[C@H](O)CC2)c2nc3cc(C(F)(F)F)ccc3[nH]2)cc1 (relative stereo) [Example 82, 1-(trans-4-Hydroxycyclohexyl)-3-(2-(4-methoxyphenyl)-1-(5-(trifluoromethyl)-1H-benzo[d]imidazol-2-yl)ethyl)urea] | 2.3 nM |
| COc1ccc(C[C@@H](NC(=O)NC[C@H]2CCCC[C@@H]2O)c2nc3ccccc3[nH]2)cc1 (relative stereo) [Example 103, 1-((R)-1-(1H-Benzo[d]imidazol-2-yl)-2-(4-methoxyphenyl)ethyl)-3-(((1R*,2S*)-2-hydroxycyclohexyl)methyl)urea] | 309 nM |
| COc1ccc(C[C@@H](NC(=O)N[C@H]2CC[C@H](O)c3ccccc32)c2nc3ccccc3[nH]2)cc1 (relative stereo) [Example 134, 1-((R)-1-(1H-Benzo[d]imidazol-2-yl)-2-(4-methoxyphenyl)ethyl)-3-((1 S*,4S*)-4-hydroxy-1,2,3,4-tetrahydronaphthalen-1-yl)urea] | 107 nM |
| COc1ccc(C[C@@H](NC(=O)N[C@@H]2CCCC[C@@H]2O)c2nc3ccccc3[nH]2)cc1 (relative stereo) [Example 145, 1-((R)-1-(1H-Benzo[d]imidazol-2-yl)-2-(4-methoxyphenyl)ethyl)-3-((1R*,2S*)-2-hydroxycyclohexyl)urea] | 62 nM |
| CCOC(=O)[C@@H]1CCCC[C@H]1NC(=O)N[C@H](Cc1ccc(OC)cc1)c1nc2ccccc2[nH]1 (relative stereo) [Example 161, (1R*,2R*)-Ethyl 2-(3-((R)-1-(1H-benzo[d]imidazol-2-yl)-2-(4-methoxyphenyl)ethyl)ureido)cyclohexanecarboxylate] | 0.6 nM |
| COc1ccc(C[C@@H](NC(=O)N[C@@H]2CCCC[C@H]2C(N)=O)c2nc3ccccc3[nH]2)cc1 (relative stereo) [Example 163, (1R*,2R*)-2-(3-((R)-1-(1H-Benzo[d]imidazol-2-yl)-2-(4-methoxyphenyl)ethyl)ureido)cyclohexanecarboxamide] | 120 nM |
| COc1ccc(C[C@@H](NC(=O)N[C@@H]2CCNC[C@@H]2F)c2nc3ccccc3[nH]2)cc1 (relative stereo) [Example 164, 1-((R)-1-(1H-Benzo[d]imidazol-2-yl)-2-(4-methoxyphenyl)ethyl)-3-((3S*,4R*)-3-fluoropiperidin-4-yl)urea] | 25 nM |
| COc1ccc(C[C@@H](NC(=O)N[C@H]2CCNC[C@@H]2F)c2nc3ccccc3[nH]2)cc1 (relative stereo) [Example 165, 1-((R)-1-(1H-Benzo[d]imidazol-2-yl)-2-(4-methoxyphenyl)ethyl)-3-((3S*,4S*)-3-fluoropiperidin-4-yl)urea] | 27 nM |
| COc1ccc(CC(NC(=O)N[C@H]2CC[C@H](O)CC2)c2nc3ccccc3[nH]2)cc1F (relative stereo) [Example 167, 1-(1-(1H-Benzo[d]imidazol-2-yl)-2-(3-fluoro-4-methoxyphenyl)ethyl)-3-(trans-4-hydroxycyclohexyl)urea] | 9.5 nM |
| COc1ccc(C[C@@H](NC(=O)N[C@@H]2CC[C@H](O)C2)c2nc3ccccc3[nH]2)cc1 (relative stereo) [Example 171, 1-((R)-1-(1H-Benzo[d]imidazol-2-yl)-2-(4-methoxyphenyl)ethyl)-3-((1R*,3S*)-3-hydroxycyclopentyl)urea] | 38 nM |
| COc1ccc(C[C@@H](NC(=O)N[C@H]2CC[C@H](O)C2)c2nc3ccccc3[nH]2)cc1 (relative stereo) [Example 172, 1-((R)-1-(1H-Benzo[d]imidazol-2-yl)-2-(4-methoxyphenyl)ethyl)-3-((1 S*,3S*)-3-hydroxycyclopentyl)urea] | 15 nM |

Further lines, results first:

| EC50 | Compound |
| --- | --- |
| 829 nM | COc1ccc(C[C@@H](NC(=O)N[C@H]2CNC[C@@H]2F)c2nc3ccccc3[nH]2)cc1 (relative stereo) [Example 184, 1-((R)-1-(1H-Benzo[d]imidazol-2-yl)-2-(4-methoxyphenyl)ethyl)-3-((3S*,4S*)-4-fluoropyrrolidin-3-yl)urea] |
| 143 nM | COc1ccc(C[C@@H](NC(=O)N[C@@H]2CNC[C@@H]2F)c2nc3ccccc3[nH]2)cc1 (relative stereo) [Example 185, 1-((R)-1-(1H-Benzo[d]imidazol-2-yl)-2-(4-methoxyphenyl)ethyl)-3-((3R*,4S*)-4-fluoropyrrolidin-3-yl)urea] |
| 8.1 nM | O=C(NC(Cc1ccc(Br)c(F)c1)c1nc2ccccc2[nH]1)N[C@H]1CC[C@H](O)CC1 (relative stereo) [Example 187, 1-(1-(1H-Benzo[d]imidazol-2-yl)-2-(4-bromo-3-fluorophenyl)ethyl)-3-(trans-4-hydroxycyclohexyl)urea] |
| 3.7 nM | O=C(NC(Cc1ccc(Br)cc1F)c1nc2ccccc2[nH]1)N[C@H]1CC[C@H](O)CC1 (relative stereo) [Example 188, 1-(1-(1H-Benzo[d]imidazol-2-yl)-2-(4-bromo-2-fluorophenyl)ethyl)-3-(trans-4-hydroxycyclohexyl)urea] |
| 1.9 nM | COc1ccc(CC(NC(=O)N[C@H]2CC[C@H](O)CC2)c2nc3ccccc3[nH]2)c(F)c1 (relative stereo) [Example 210, 1-(1-(1H-Benzo[d]imidazol-2-yl)-2-(2-fluoro-4-methoxyphenyl)ethyl)-3-(trans-4-hydroxycyclohexyl)urea] |
| 6.6 nM | COc1ccc(CC(NC(=O)N[C@H]2CC[C@](C)(O)CC2)c2nc3ccccc3[nH]2)cc1F (relative stereo) [Example 226, 1-(1-(1H-Benzo[d]imidazol-2-yl)-2-(3-fluoro-4-methoxyphenyl)ethyl)-3-(trans-4-hydroxy-4-methylcyclohexyl)urea] |
| 97 nM | COc1ccc(CC(NC(=O)N[C@H]2CC[C@@](C)(O)CC2)c2nc3ccccc3[nH]2)cc1F (relative stereo) [Example 227, 1-(1-(1H-Benzo[d]imidazol-2-yl)-2-(3-fluoro-4-methoxyphenyl)ethyl)-3-(cis-4-hydroxy-4-methylcyclohexyl)urea] |
| 2.6 nM | COc1ccc(CC(NC(=O)N[C@H]2CC[C@H](O)CC2)c2nc3ccccc3[nH]2)c(F)c1F (relative stereo) [Example 232, 1-(1-(1H-Benzo[d]imidazol-2-yl)-2-(2,3-difluoro-4-methoxyphenyl)ethyl)-3-(trans-4-hydroxycyclohexyl)urea] |
| 3.2 nM | COc1cc(F)c(CC(NC(=O)N[C@H]2CC[C@H](O)CC2)c2nc3ccccc3[nH]2)c(F)c1 (relative stereo) [Example 235, 1-(1-(1H-Benzo[d]imidazol-2-yl)-2-(2,6-difluoro-4-methoxyphenyl)ethyl)-3-(trans-4-hydroxycyclohexyl)urea] |
| 36 nM | O=C(NC(Cc1ccc(C(F)(F)F)c(F)c1)c1nc2ccccc2[nH]1)N[C@H]1CC[C@H](O)CC1 (relative stereo) [Example 237, 1-(1-(1H-Benzo[d]imidazol-2-yl)-2-(3-fluoro-4-(trifluoromethyl)phenyl)ethyl)-3-(trans-4-hydroxycyclohexyl)urea] |
| 12 nM | O=C(NC(Cc1ccc(C(F)(F)F)cc1F)c1nc2ccccc2[nH]1)N[C@H]1CC[C@H](O)CC1 (relative stereo) [Example 240, 1-(1-(1H-Benzo[d]imidazol-2-yl)-2-(2-fluoro-4-(trifluoromethyl)phenyl)ethyl)-3-(trans-4-hydroxycyclohexyl)urea] |
